Literature values as cited in patent US20050101577A1, “2-alkylidene-19-nor-vitamin D derivatives for the treatment of rickets or vitamin D deficiency” (Pfizer Inc., priority 2003, published 2005).

System: intestinal calcium transport
Conditions: 260 pmol/day, only dose tested

C=C1/C(=C\C=C2/CCC[C@]3(C)[C@@H]([C@H](C)CCCC(C)(C)O)CC[C@@H]23)C[C@@H](O)C[C@@H]1O [1,25-(OH)2D3, 1,25-dihydroxyvitamin D3]
intestinal calcium transport (in words): expected elevation of intestinal calcium transport
